Like-named read-outs stand apart in the source and are kept apart here.
Assays:
VEGFR-2 [1] = target: T1, VEGFR-2 (Homo sapiens, UniProt P35968); assay: VEGFR-2 relative quantification by flow cytometry in MCF-7; type: cell-based; set-up: Both membrane and total PD-L1 and VEGFR-2 were relatively determined using DMSO-treated cells as a negative control; endogenous in cells; host or cells: MCF-7; details: MCF-7, 20 µM, 24 h, control = 100
Procedure: Then, we determined the effect of the selected compounds on the biological targets, PD-L1 and VEGFR-2, by flow cytometry. […] As usually, the assay was performed at a concentration of 20 µM for 24 h.
(§1) To study the effect of the compounds on every biological target in cancer cell lines, the compounds were used at 20 µM dose.
(§2) For the assay, 10^5 cells per well were incubated for 24 h with the corresponding dose of the tested compound in a total volume of 500 μL of their growth media.
(§3) On the one hand, to detect total PD-L1 and VEGFR-2, after the cell treatments, they were collected and fixed with 4% in PBS paraformaldehyde.
(§4) On the other hand, to detect membrane PD-L1 and VEGFR-2, the process was the same, avoiding the treatment with 0.5% in PBS TritonTM X-100 step.

HT-29 cells = assay: Cancer cell viability in monoculture and co-cultures with THP-1 by flow cytometry; type: cell-based, human; details: for morphological changes of HT-29 cells: 48 h co-culture with THP-1 at (1:5); for viability at 20 µM: Homo sapiens
Procedure: We also studied the effect of the selected compounds on tumor cell proliferation in the presence of human monocytic leukemia cell line THP-1. This assay was carried out using HT-29 as the cancer cell line and different proportions of immune cells. Standard proportions for this assay were 1:5 cancer/immune cells. Additionally, we also carried out this assay using a 2:1 proportion of cancer cells as regards immune THP-1 cells. Assays were performed after 24 and 48 h of treatment, using 20 μM doses of selected compounds and BMS-8 as the reference compound.
First, to study the effect of the compounds on the cell viability in monoculture, 10^5 of cancer cell line per well were seeded and incubated for 24 h; then, the corresponding compound at 20 μM or DMSO for the positive control were added. After 24 h of incubation, cancer cells were collected with trypsin and fixed with 4% in PBS paraformaldehyde and counted by flow cytometry.
On the other hand, to study the effect of the compounds on the cell viability in co-culture with THP-1 cells, 10^5 or 2 × 10^5 of the HT-29 cells line per well were seeded and incubated for 24 h, then the medium was changed by one cell culture medium supplemented with IFN-γ (10 ng/mL; human, Invitrogen®, Waltham, MA, USA) and containing 5 × 10^5 or 105, respectively, of THP-1 per well and the corresponding compound at 20 μM or DMSO for the positive control. After 24 h/48 h of incubation, supernatants were collected to determine THP-1 living cells. Additionally, stain cancer cells were collected with trypsin. Both types of suspension cells were fixed with 4% in PBS paraformaldehyde and counted by flow cytometry.

VEGFR-2 [2] = target: T1, VEGFR-2; assay: VEGFR-2 relative quantification by flow cytometry in A-549; type: cell-based; set-up: Both membrane and total PD-L1 and VEGFR-2 were relatively determined using DMSO-treated cells as a negative control; endogenous in cells; host or cells: A-549; details: A-549, 20 µM, 24 h, relative to DMSO control = 100
Procedure: For these assays, cells were incubated for 24 h in the presence of the corresponding compounds at 20 µM concentration.
as §1, §2, §3, §4

CD11b = CD11b relative quantification by flow cytometry in co-cultured THP-1; type: cell-based, human; details: 20 μM; for % CD11b: related to non-treated cells; for reduction of CD11b: excess of cancer cells (2:1)
Procedure: Reducing the expression of CD11b has become a promising target for immune modulation in anti-cancer therapies. For that reason, we decided to study the effect of our compounds on CD11b in THP-1 cells co-cultured with HT-29. We also determine the relative amount of CD80, a common surface marker for monocytes. This study was performed on the collected cell culture from each well and gating living THP-1 cell population.
To study the effect of the compounds on every biological target in co-cultured THP-1 immune cells with cancer cell line HT-29, the compounds were incubated for 24 h/48 h as described before.
To detect membrane CD11b and CD80, after the cell incubation, suspended THP-1 was collected from the cell culture of each sample well, fixed with 4% in PBS paraformaldehyde, and stained with FITC Mouse monoclonal Anti-Human CD80 (Sigma-Aldrich, S. Louis, MO, USA, SAB4700142) and Alexa Fluor® 647 Rabbit monoclonal Anti-CD11b (Merck, S. Louis, MO, USA, #MABF366).

PD-L1 = PD-L1 (Homo sapiens, UniProt Q9NZQ7); assay: PD-L1 relative quantification by flow cytometry in A-549; type: cell-based; set-up: endogenous in cells; host or cells: A-549; details: A-549, 20 µM, 24 h, relative to DMSO control = 100
Chain of PD-L1 (Q9NZQ7 19-290): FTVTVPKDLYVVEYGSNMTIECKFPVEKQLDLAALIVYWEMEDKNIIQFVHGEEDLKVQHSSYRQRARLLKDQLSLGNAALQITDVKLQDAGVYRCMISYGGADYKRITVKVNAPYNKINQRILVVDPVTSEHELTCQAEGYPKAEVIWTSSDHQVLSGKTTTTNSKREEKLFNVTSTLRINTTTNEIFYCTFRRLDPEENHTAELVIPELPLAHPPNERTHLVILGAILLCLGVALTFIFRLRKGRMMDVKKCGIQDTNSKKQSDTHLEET
Procedure: To assess the effect of the selected compounds on the biological targets PD-L1 and VEFGR-2, we performed the study on both cancer cell lines HT-29 and A-549 and by flow cytometry technique. […] For these assays, cells were incubated for 24 h in the presence of the corresponding compounds at 20 µM concentration.
as §1, §2
On the one hand, to detect total PD-L1 and VEGFR-2, after the cell treatments, they were collected and fixed with 4% in PBS paraformaldehyde. After fixation, a treatment with 0.5% in PBS TritonTM X-100 was performed, and finally, cells were stained with FITC Mouse monoclonal Anti-Human VEGFR-2 (ab184903) and Alexa Fluor® 647 Rabbit monoclonal Anti-PD-L1 (ab215251).
as §4

[3] = HT-29 monoculture, 20 μM, read-out: cancer cell viability (%), Monocult. HT-29
[4] = co-culture 1:5 HT-29/THP-1, 20 μM, 24 h, read-out: cancer cell viability (%), 1:5 HT-29/THP-1, 24 h
[5] = co-culture 1:5 HT-29/THP-1, 20 μM, 48 h, read-out: cancer cell viability (%), 1:5 HT-29/THP-1, 48 h
[6] = co-culture 2:1 HT-29/THP-1, 20 μM, 24 h, read-out: cancer cell viability (%), 2:1 HT-29/THP-1, 24 h
[7] = co-culture 2:1 HT-29/THP-1, 20 μM, 48 h, read-out: cancer cell viability (%), 2:1 HT-29/THP-1, 48 h
[8] = membrane THP-1, 1:5 HT-29/THP-1, 24 h
[9] = membrane THP-1, 2:1 HT-29/THP-1, 48 h
[10] = co-culture (1:5) HT-29/THP-1, 24 h, 20 μM
[11] = co-culture (2:1) HT-29/THP-1, 24 h, 20 μM

T1 sequence (P35968 20-1356): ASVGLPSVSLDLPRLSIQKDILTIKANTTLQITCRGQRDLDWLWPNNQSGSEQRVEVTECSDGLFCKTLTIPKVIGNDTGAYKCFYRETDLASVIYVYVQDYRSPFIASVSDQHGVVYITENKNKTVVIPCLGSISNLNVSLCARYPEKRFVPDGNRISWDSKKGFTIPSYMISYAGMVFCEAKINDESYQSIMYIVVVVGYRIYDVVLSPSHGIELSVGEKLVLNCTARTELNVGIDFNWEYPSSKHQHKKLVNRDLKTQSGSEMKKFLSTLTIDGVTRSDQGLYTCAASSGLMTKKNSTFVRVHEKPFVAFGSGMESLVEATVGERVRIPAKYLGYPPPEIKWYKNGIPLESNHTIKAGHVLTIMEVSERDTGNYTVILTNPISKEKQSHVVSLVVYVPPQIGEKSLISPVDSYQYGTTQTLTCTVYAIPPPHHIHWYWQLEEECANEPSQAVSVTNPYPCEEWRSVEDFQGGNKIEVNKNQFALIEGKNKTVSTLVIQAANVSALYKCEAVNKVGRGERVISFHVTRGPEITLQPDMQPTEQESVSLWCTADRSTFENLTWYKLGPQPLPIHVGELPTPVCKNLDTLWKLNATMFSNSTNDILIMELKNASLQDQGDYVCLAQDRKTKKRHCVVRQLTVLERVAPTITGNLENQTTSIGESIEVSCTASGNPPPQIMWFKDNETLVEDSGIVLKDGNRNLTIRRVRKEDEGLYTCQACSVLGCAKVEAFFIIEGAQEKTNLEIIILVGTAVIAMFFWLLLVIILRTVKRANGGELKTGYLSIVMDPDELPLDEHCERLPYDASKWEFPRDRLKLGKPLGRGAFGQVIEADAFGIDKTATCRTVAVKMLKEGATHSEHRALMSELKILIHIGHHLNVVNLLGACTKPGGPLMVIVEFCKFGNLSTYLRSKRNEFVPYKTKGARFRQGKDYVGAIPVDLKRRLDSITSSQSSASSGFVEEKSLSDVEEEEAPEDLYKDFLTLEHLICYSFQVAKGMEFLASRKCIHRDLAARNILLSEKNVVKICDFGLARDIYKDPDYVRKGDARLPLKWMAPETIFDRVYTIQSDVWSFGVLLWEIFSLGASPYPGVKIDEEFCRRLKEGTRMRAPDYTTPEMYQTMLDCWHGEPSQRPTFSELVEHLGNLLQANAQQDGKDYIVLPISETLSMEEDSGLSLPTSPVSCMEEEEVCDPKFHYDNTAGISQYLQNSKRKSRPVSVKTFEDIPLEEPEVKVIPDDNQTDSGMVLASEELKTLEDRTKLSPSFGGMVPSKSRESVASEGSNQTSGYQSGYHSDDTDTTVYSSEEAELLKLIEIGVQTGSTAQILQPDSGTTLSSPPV

Row | Compound | % VEGFR-2 Memb. (VEGFR-2 [1]) | % VEGFR-2 Total (VEGFR-2 [1]) | morphological changes of HT-29 cells (HT-29 cells; 20 μM) | viability at 20 µM (HT-29 cells; [3]) | viability at 20 µM (HT-29 cells; [4]) | viability at 20 µM (HT-29 cells; [5]) | viability at 20 µM (HT-29 cells; [6]) | viability at 20 µM (HT-29 cells; [7]) | Total VEGFR-2 (%) (VEGFR-2 [2]) | % CD11b (CD11b; [8]) | % CD11b (CD11b; [9]) | Total PD-L1 (%) (PD-L1) | inhibition of cell viability (HT-29) (HT-29 cells; [10]) | inhibition of cell viability (HT-29) (HT-29 cells; [11]) | reduction of CD11b (CD11b; 48 h) | cancer cell viability (%), 2:1 HT-29/THP-1, 48 h (HT-29 cells; co-culture 2:1 HT-29/THP-1, 20 μM, 48 h)
1 | Cc1c(COc2ccc(CN3CCCCC3C(=O)O)cc2Br)cccc1-c1ccccc1 (centres unmarked) [BMS-8, reference compound] | 107 ± 4% | 93% | retained this epithelial nature, resulting in an increased and brighter cytosolic granulation | 102 ± 23% | 88 ± 3% | 102 ± 12% | 106 ± 10% | 101 ± 3% | 122 ± 13% | 91 ± 1% | 80 ± 2% | 96 ± 29% |  |  |  | 
2 | COc1ccc(COc2cccc(NC(=O)Nc3ccc(F)cc3)c2)cc1 [Compound 2] | 91 ± 12% | 72 ± 10% | less confluent cultures with a few elongated fibroblast-like appearance cells | 89 ± 7% | 80 ± 4% | 102 ± 16% | 83 ± 5% | 95 ± 5% | 97 ± 12% | 92 ± 9% | 86 ± 3% | 107 ± 13% | 20% | 20% | about 20% | 
3 | COc1ccc(COc2cccc(NC(=O)Nc3ccc(Br)cc3)c2)cc1 [Compound 8] | 82 ± 6% | 88 ± 11% | less confluent cultures with a few elongated fibroblast-like appearance cells | 86 ± 9% | 83 ± 13% | 106 ± 8% | 95 ± 16% | 92 ± 20% | 141 ± 13% | 91 ± 4% | 93 ± 25% | 80 ± 7% |  |  |  | 
4 | COc1ccc(COc2cccc(NC(=O)Nc3ccc(OC)cc3)c2)cc1 [Compound 11] | 81 ± 11% | 83 ± 21% | less confluent cultures with a few elongated fibroblast-like appearance cells | 95 ± 21% | 86 ± 4% | 119 ± 14% | 88 ± 3% | 85 ± 11% | 143 ±10% | 95 ± 6% | 83 ± 5% | 135 ± 18% | 20% | 20% | about 20% | active
5 | COc1ccc(COc2cccc(NC(=O)Oc3ccccc3)c2)cc1 [Compound 14] | 89 ± 11% | 110 ± 12% | slight loss of cell-to-cell contact and the appearance of clustered cells with irregular surfaces | 82 ± 4% | 90 ± 6% | 97 ± 5% | 88 ± 9% | 85 ± 14% | 107 ± 18% | 78 ± 11% | 81 ± 8% | 141 ± 1% |  |  | about 20% | 

Source: PMC10218498, “Exploring BenzylethoxyAryl Urea Scaffolds for Multitarget Immunomodulation Therapies” (International Journal of Molecular Sciences, 2023)
